One test addresses human orexin 1 receptor (Homo sapiens, UniProt O43613). As to the kind of experiment: Human orexin 1 receptor radioligand binding. As to conditions: read-out: hOX1 Ki. The method, then:
(§1) Data are analyzed using pc-Sandy macro and graphed on Graphpad Prism 5. For analysis, each concentration point is averaged from triplicate values and the averaged values are plotted on Graphpad Prism. The IC50 was determined by applying the following equation (GraphPad Prism 5.0, SanDiego) for one site competition where X=log (concentration) and Y=specific binding. Top denotes the total [^3H]-(1-(5-(2-fluoro-phenyl)-2-methyl-thiazol-4-yl)-1-((S)-2-(5-phenyl-(1,3,4)oxadiazol-2-ylmethyl)-pyrrolidin-1-yl)-methanone) binding, bottom denotes the nonspecific [^3H]-(1-(5-(2-fluoro-phenyl)-2-methyl-thiazol-4-yl)-1-((S)-2-(5-phenyl-(1,3,4)oxadiazol-2-ylmethyl)-pyrrolidin-1-yl)-methanone) binding. Graphpad Prism calculates Ki value from IC50 and the pre-determined Kd values for [^3H]-(1-(5-(2-fluoro-phenyl)-2-methyl-thiazol-4-yl)-1-((S)-2-(5-phenyl-(1,3,4)oxadiazol-2-ylmethyl)-pyrrolidin-1-yl)-methanone) and [3H]-EMPA. The Ki for each compound is then uploaded into 3DX. Each run comprises individual compounds in triplicate. The data in Table 1 and Table 2 represent averages from between 2-20 runs
(§2) Rat and Human Orexin 1 Receptor Radioligand Binding Studies
(§3) After centrifugation (2K×G, 5 min at 4° C.), the supernatant was aspirated and the pellets frozen and stored at −80° C. […] Each cell pellet from a 15 cm plate was resuspended in 10 mL, stored on ice, and homogenized for 45 sec prior to addition to the reactions. […] The final concentration of DMSO in the reactions is equal to or less than 0.1%. Total and nonspecific binding was determined in the absence and presence of 10 μM almorexant. The total volume of each reaction is 200 μL (20 μL of diluted compounds, 80 μL of [^3H]-(1-(5-(2-fluoro-phenyl)-2-methyl-thiazol-4-yl)-1-((S)-2-(5-phenyl-(1,3,4)oxadiazol-2-ylmethyl)-pyrrolidin-1-yl)-methanone) diluted in PBS and 100 μL of the cell suspension). […] The plates were washed 3 times by aspirating 30 ml PBS through the plates. Plates were dried in 55° C. oven for 60 min, scintillation fluid was added, and the radioactivity was counted on a Topcount (Packard).

In a further test the target is rat orexin 1 receptor (Rattus norvegicus, UniProt P56718). As to the kind of experiment: Rat orexin 1 receptor radioligand binding. As to conditions: read-out: rOX1 Ki. As to the method: as §1, §2, §3
Another test has as its target human orexin 2 receptor (Homo sapiens (Human), UniProt O43614). Description: Human orexin 2 receptor radioligand binding. As to conditions: human orexin 2 receptor; averages of 2-20 runs; read-out: hOX2 Ki. As to the method: as §1
Human Orexin 2 Receptor Radioligand Binding Studies
as §3, with “HEK293 stably expressing human orexin 2 receptor (Genebank accession number NM_001526) were grown to confluency in DMEM (Hyclone, cat # SH30022), 10% FBS, 1× Pen/Strep, 1× NaPyruvate, 10 mM HEPES, 600 ug/ml G418 media on 150 cm^2 tissue culture plates, washed with 5 mM EDTA in PBS (HyClone Dulbecco's Phosphate Buffered Saline 1× with Calcium and Magnesium, Cat # SH30264.01, hereafter referred to simply as PBS) and scraped into 50 ml tubes. After” for “After”, “sec just” for “sec”, “[^3H]-EMPA” for “[^3H]-(1-(5-(2-fluoro-phenyl)-2-methyl-thiazol-4-yl)-1-((S)-2-(5-phenyl-(1,3,4)oxadiazol-2-ylmethyl)-pyrrolidin-1-yl)-methanone)”

Where [1] appears, read: human orexin 1 receptor, averages of 2-20 runs.
Setting [2] is: rat orexin 1 receptor, averages of 2-20 runs.

Molecules are shown by their SMILES. Where two headings read alike, the source gives them in different places. Some results are limits rather than exact numbers.

Sequence of human orexin 2 receptor (O43614 whole entry): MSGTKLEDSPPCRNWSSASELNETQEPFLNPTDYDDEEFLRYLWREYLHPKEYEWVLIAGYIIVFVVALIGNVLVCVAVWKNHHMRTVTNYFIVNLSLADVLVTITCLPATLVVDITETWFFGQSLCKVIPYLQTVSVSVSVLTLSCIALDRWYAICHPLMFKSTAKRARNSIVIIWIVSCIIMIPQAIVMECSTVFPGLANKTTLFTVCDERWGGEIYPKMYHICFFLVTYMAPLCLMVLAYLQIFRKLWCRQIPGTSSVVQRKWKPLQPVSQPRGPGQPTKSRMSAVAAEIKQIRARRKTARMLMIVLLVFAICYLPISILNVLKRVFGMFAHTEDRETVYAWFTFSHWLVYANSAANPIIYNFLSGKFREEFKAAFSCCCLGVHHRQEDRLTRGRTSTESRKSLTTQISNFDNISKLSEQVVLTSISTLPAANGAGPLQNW

For the compound `Cc1ccc(C(=O)N2C[C@H]3C[C@@H](Oc4ccc(C(F)(F)F)cn4)[C@@H]2C3)c(-n2ccnn2)n1` [Example 34, (6-methyl-2-(1H-1,2,3-triazol-1-yl)pyridin-3-yl)((1S,4R,6R)-6-((5-(trifluoromethyl)pyridin-2-yl)oxy)-2-azabicyclo[2.2.1]heptan-2-yl)methanone], the Ki (commonly the dissociation constant of the complex between target and ligand, obtained from inhibition or displacement) was 368 nM at human orexin 1 receptor (setting [1]) and 162 nM on rat orexin 1 receptor (setting [2]).

`O=C(c1ccccc1-n1nccn1)N1C[C@H]2C[C@@H](Nc3ccc(C(F)(F)F)cn3)[C@@H]1C2` [Example 53, (2-(2H-1,2,3-triazol-2-yl)phenyl)((1S,4S,6R)-6-((5-(trifluoromethyl)pyridin-2-yl)amino)-2-azabicyclo[2.2.1]heptan-2-yl)methanone]: the Ki at human orexin 1 receptor (setting [1]) was found to be 4 nM.

On to `O=C(c1ccc(F)cc1-c1ncccn1)N1C[C@@H]2CC[C@H]1[C@H](Oc1ccc(C(F)(F)F)cn1)C2` [Example 259, (4-fluoro-2-(pyrimidin-2-yl)phenyl)((1S,4R,6R)-6-((5-(trifluoromethyl)pyridin-2-yl)oxy)-2-azabicyclo[2.2.2]octan-2-yl)methanone], for which the inhibition constant Ki on human orexin 1 receptor (setting [1]) worked out at 19 nM; at rat orexin 1 receptor (setting [2]) it was 16 nM.

Consider `O=C(c1ccccc1-c1ncc(F)cn1)N1C[C@@H]2CC[C@H]1[C@H](Oc1ccc(C(F)(F)F)cn1)C2` [Example 262, (2-(5-fluoropyrimidin-2-yl)phenyl)((1S,4R,6R)-6-((5-(trifluoromethyl)pyridin-2-yl)oxy)-2-azabicyclo[2.2.2]octan-2-yl)methanone], for which the Ki at human orexin 1 receptor (setting [1]) and on rat orexin 1 receptor (setting [2]) was 10 nM throughout.

Consider `CN(c1ccc(C(F)(F)F)cn1)[C@@H]1C[C@H]2C[C@@H]1N(C(=O)c1cccc(F)c1-c1ncccn1)C2` [Example 157, (3-fluoro-2-(pyrimidin-2-yl)phenyl)((1S,4S,6R)-6-(methyl(5-(trifluoromethyl)pyridin-2-yl)amino)-2-azabicyclo[2.2.1]heptan-2-yl)methanone], for which the Ki on rat orexin 1 receptor (setting [2]) came to 6 nM; on human orexin 2 receptor it was 351 nM.

Take `O=C(c1ccc(F)cc1-c1ncccn1)N1CC2CCC1C(Oc1ccc(C(F)(F)F)cn1)C2` (racemic) [Example 250, (R/S)-(4-fluoro-2-(pyrimidin-2-yl)phenyl)(6-((5-(trifluoromethyl)pyridin-2-yl)oxy)-2-azabicyclo[2.2.2]octan-2-yl)methanone]: the Ki at human orexin 1 receptor (setting [1]) amounted to 24 nM; on rat orexin 1 receptor (setting [2]), 22 nM.

Take `O=C(c1ccccc1-n1nccn1)N1C[C@H]2C[C@@H](Oc3ccc(C(F)(F)F)cn3)[C@@H]1C2` [Example 36, (2-(2H-1,2,3-triazol-2-yl)phenyl)((1S,4R,6R)-6-((5-(trifluoromethyl)pyridin-2-yl)oxy)-2-azabicyclo[2.2.1]heptan-2-yl)methanone]: the Ki at human orexin 1 receptor (setting [1]) stood at 13 nM.

`O=C(c1ccccc1-c1ncc(F)cn1)N1CC2CCC1C(Oc1ccc(C(F)(F)F)cn1)C2` (racemic) [Example 251, (R/S)-(2-(5-fluoropyrimidin-2-yl)phenyl)(6-((5-(trifluoromethyl)pyridin-2-yl)oxy)-2-azabicyclo[2.2.2]octan-2-yl)methanone]: the Ki on human orexin 1 receptor (setting [1]) was 11 nM; at rat orexin 1 receptor (setting [2]), 18 nM.

On to `Cc1cccc(C(=O)N2C[C@H]3C[C@@H](Oc4ccc(C(F)(F)F)cn4)[C@@H]2C3)c1-c1ncco1` [Example 32, (3-methyl-2-(oxazol-2-yl)phenyl)((1S,4R,6R)-6-((5-(trifluoromethyl)pyridin-2-yl)oxy)-2-azabicyclo[2.2.1]heptan-2-yl)methanone], for which the Ki at human orexin 1 receptor (setting [1]) was determined as 6 nM.

Regarding `Cc1ccc(-c2ncccn2)c(C(=O)N2C[C@H]3C[C@@H](Oc4ccc(C(F)(F)F)nn4)[C@@H]2C3)n1` [Example 142, (6-methyl-3-(pyrimidin-2-yl)pyridin-2-yl)((1S,4R,6R)-6-((6-(trifluoromethyl)pyridazin-3-yl)oxy)-2-azabicyclo[2.2.1]heptan-2-yl)methanone], the figures for the Ki at rat orexin 1 receptor (setting [2]) and on human orexin 2 receptor were 376 nM and 7900 nM, respectively.

Consider `O=C(c1cc(F)ccc1-c1ncccn1)N1C[C@H]2C[C@@H](Nc3ccc(Cl)cn3)[C@@H]1C2` [Example 172, ((1S,4S,6R)-6-((5-chloropyridin-2-yl)amino)-2-azabicyclo[2.2.1]heptan-2-yl)(5-fluoro-2-(pyrimidin-2-yl)phenyl)methanone], for which the inhibitory constant (Ki) is 7 nM on human orexin 1 receptor (setting [1]) and 8 nM at rat orexin 1 receptor (setting [2]).

Regarding `O=C(c1ccccc1-n1nccn1)N1C[C@H]2C[C@@H](Oc3ccccn3)[C@@H]1C2` [Example 102, (2-(2H-1,2,3-triazol-2-yl)phenyl)((1S,4R,6R)-6-(pyridin-2-yloxy)-2-azabicyclo[2.2.1]heptan-2-yl)methanone], the values for the Ki on rat orexin 1 receptor (setting [2]) and on human orexin 2 receptor were 404 nM and 1600 nM, respectively.

With `O=C(c1cc(F)ccc1-n1nccn1)N1C[C@H]2C[C@@H](Nc3ccc(C(F)(F)F)cn3)[C@@H]1C2` [Example 57, (5-fluoro-2-(2H-1,2,3-triazol-2-yl)phenyl)((1S,4S,6R)-6-((5-(trifluoromethyl)pyridin-2-yl)amino)-2-azabicyclo[2.2.1]heptan-2-yl)methanone], the values for the Ki on rat orexin 1 receptor (setting [2]) and at human orexin 2 receptor were 5 nM and 225 nM, respectively.

Turning to `Cc1cnc(O[C@@H]2C[C@H]3C[C@@H]2N(C(=O)c2nc(C)ccc2-n2nccn2)C3)nc1` [Example 132, (6-methyl-3-(2H-1,2,3-triazol-2-yl)pyridin-2-yl)((1S,4R,6R)-6-((5-methylpyrimidin-2-yl)oxy)-2-azabicyclo[2.2.1]heptan-2-yl)methanone], the values for the inhibition constant Ki at rat orexin 1 receptor (setting [2]) and on human orexin 2 receptor were 425 nM and 6800 nM, respectively.

As to `Cc1ccc(-n2nccn2)c(C(=O)N2C[C@H]3C[C@@H](Nc4ccc(C(F)(F)F)cn4)[C@@H]2C3)n1` [Example 54, (6-methyl-3-(2H-1,2,3-triazol-2-yl)pyridin-2-yl)((1S,4S,6R)-6-((5-(trifluoromethyl)pyridin-2-yl)amino)-2-azabicyclo[2.2.1]heptan-2-yl)methanone], the results for the Ki at human orexin 1 receptor and on rat orexin 1 receptor were 5 nM and 6 nM, respectively.

Turning to `CC(=O)N(c1ccc(C(F)(F)F)cn1)[C@@H]1C[C@H]2C[C@@H]1N(C(=O)c1cccc(F)c1-c1ncccn1)C2` [Example 162, N-((1S,4R,6R)-2-(3-fluoro-2-(pyrimidin-2-yl)benzoyl)-2-azabicyclo[2.2.1]heptan-6-yl)-N-(5-(trifluoromethyl)pyridin-2-yl)acetamide], the Ki at rat orexin 1 receptor (setting [2]) and at human orexin 2 receptor was greater than 10000 nM each time.

For `Cc1ccc(-n2nccn2)c(C(=O)N2C[C@H]3C[C@@H](Oc4ccc(C(F)(F)F)nn4)[C@@H]2C3)n1` [Example 140, (6-methyl-3-(2H-1,2,3-triazol-2-yl)pyridin-2-yl)((1S,4R,6R)-6-((6-(trifluoromethyl)pyridazin-3-yl)oxy)-2-azabicyclo[2.2.1]heptan-2-yl)methanone], the Ki on rat orexin 1 receptor (setting [2]) was found to be 330 nM; at human orexin 2 receptor, 7700 nM.

Take `COC(=O)c1cnc(N[C@@H]2C[C@H]3C[C@@H]2N(C(=O)c2ccccc2-n2nccn2)C3)cn1` [Example 221, methyl 5-(((1S,4S,6R)-2-(2-(2H-1,2,3-triazol-2-yl)benzoyl)-2-azabicyclo[2.2.1]heptan-6-yl)amino)pyrazine-2-carboxylate]: the Ki on rat orexin 1 receptor (setting [2]) stood at 2100 nM; on human orexin 2 receptor, 3000 nM.

As to `Cc1ccc(-n2nccn2)c(C(=O)N2C[C@H]3C[C@@H](Oc4ccc(F)cn4)[C@@H]2C3)n1` [Example 119, ((1S,4R,6R)-6-((5-fluoropyridin-2-yl)oxy)-2-azabicyclo[2.2.1]heptan-2-yl)(6-methyl-3-(2H-1,2,3-triazol-2-yl)pyridin-2-yl)methanone], the figures for the Ki on rat orexin 1 receptor (setting [2]) and at human orexin 2 receptor were 262 nM and 3600 nM, respectively.

The values are drawn from US9611277B2 (Janssen Pharmaceutica NV, priority 2013, dated 2017).
